Test results published in publication PMC10115881, “Disrupting the α-synuclein-ESCRT interaction with a peptide inhibitor mitigates neurodegeneration in preclinical models of Parkinson’s disease” (Nature Communications, 2023).

Key:
[1] = test system: a-syn-CHMP2B interaction; assay: Proximity ligation assay, endogenous a-syn-CHMP2B in rat cortical neurons; type: cell-based
Procedure: PLA was performed on fixed primary neurons using Duolink® in situ red starter kit mouse/rabbit (Sigma–Aldrich) according to the manufacturer’s instructions. Fixed neurons were permeabilized with 0.1% Triton-X-100 in PBS for 10 min, washed three times with PBS, and incubated with blocking solution for 30 min at 37 °C in a humidity chamber. Primary antibodies (mouse anti-a-syn (clone 42) (BD Biosciences, catalog #610787, 1:500) and rabbit anti-CHMP2B (Abcam, catalog #ab33174, 1:50)) were diluted using antibody diluent. After blocking, neurons were incubated with primary antibodies at room temperature for 1 h in a humidity chamber. Coverslips were washed with wash buffer A two times for 5 min and then incubated with PLA probe solution (anti-mouse minus and anti-rabbit plus) for 1 h at 37 °C in a humidity chamber. Coverslips were washed with wash buffer A two times for 5 min. For the ligation step, 5× ligation buffer was diluted 1:5 in high purity water and ligase was added to the 1× ligation buffer at 1:40 dilution. After the wash, coverslips were incubated in the diluted ligase for 30 min at 37 °C in a humidity chamber. Post-ligation, coverslips were washed with wash buffer A two times for 5 min. For the amplification step, 5× amplification buffer was diluted 1:5 in high purity water and polymerase was added to the 1× amplification buffer at 1:80 dilution. […]

[2] = test system: WT a-syn-mediated cytotoxicity in HEK293 cells; assay: Pooled lentiviral 7-mer peptide cytotoxicity screen, WT a-syn + MG132; type: cell-based, human;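 on Slope Norm Reads: reads normalized to total peptide reads per sample with scalar factor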
Text: We used a lentiviral library of 50,549 7-mer peptides enriched in PPI motifs[13] on a green fluorescent protein (GFP) scaffold (Fig. 1A). We infected cells in a pooled format and the amino acid sequence of each peptide served as its own barcode. By using a low multiplicity of infection followed by puromycin selection, each infected cell expressed one unique GFP-peptide. We screened for peptides that reduced a-syn-mediated cytotoxicity or a-syn oligomers in parallel (Fig. 1A). To cause cytotoxicity relevant to PD, we induced proteostatic stress in HEK293 cells by inhibiting the proteasome with MG132 and overexpressing human WT a-syn associated with idiopathic PD in one screen or the more toxic mutant A53T a-syn associated with familial PD in a second screen. This combination of a-syn overexpression and pharmacological proteasome inhibition led to death of most cells, with only those that expressed a protective peptide surviving. By extracting genomic DNA from the surviving cells and amplifying the peptide coding sequences, we identified the protective peptides (Fig. 1A). To detect a-syn oligomers, we used a protein fragment complementation assay (PCA) of a-syn oligomerization in HEK293 cells. In this assay, human A53T a-syn was fused to either the C- or N-terminal half of yellow fluorescent protein (YFP). No fluorescence is detectable while a-syn exists in monomers but, when a-syn oligomerizes, the two halves of YFP come in close enough proximity to form a functional, spontaneously fluorescent protein. […] Our screens yielded 10 hits (Table S1). The hit with the most reads (i.e., the most abundant) was the same peptide in all screens: IPIQLKA (named PDpep1) (Table S1). We validated the cytoprotective effects of PDpep1 in HEK293 cells overexpressing WT or A53T a-syn (Figs. 1B, S1A), as well as its ability to reduce WT or A53T a-syn oligomers in a luciferase-based PCA[18]–[20] compared to a scrambled control peptide (Figs. 1C, S1B).
HEK293T cells (ATCC, CRL-3216) were maintained in DMEM supplemented with 10% FBS and 1% pen/strep/glutamine, and the appropriate selection antibiotics when required. Lentiviruses were made in a 15 cm dish format by transfecting packaging cells (HEK293T) with a three-plasmid system (expression vector, psPAX2 and pMD2.G) and using Polyjet DNA transfection reagent (FroggaBio, SL100688.1). Viral transduction of HEK293T cells were performed with a multiplicity of infection (MOI) of 0.3. Infected cells were selected in puromycin-containing medium to eliminate uninfected cells and three aliquots of cells were collected for sampling of the initial (T0) cell population. Cells were treated with MG132 at concentrations of 0, 10, 25, or 50 µM. For the cell viability screen, surviving cells were collected and gDNA was extracted for identification of peptide inhibitors of cell toxicity. For the inhibition of a-syn aggregation screen, a protein fragment complementation assay (PCA) was used by transfecting cells with split YFP-a-syn constructs following stable expression of the peptides. Cells were sorted based on their YFP fluorescence intensities with a FACSVantage SE cell sorter (BD Bioscience) and gDNA was extracted for identification of peptides.
Genomic DNA (gDNA) from peptide expressing cells at different time-points was extracted using QIAamp DNA Blood Mini Kit. PCR amplifications of peptides from gDNA in parallel with the lentiviral plasmid library (naïve library) were performed using indexed Illumina PCR primers to incorporate both the Illumina adapter sequences and indexing sequences. Each 50 μl reaction contained 3.2 μg of template, 2× PCR buffer, 2× enhancer solution, 300 μM each dNTP, 900 nM each of Adapter A (5′-[…]-[…]-3′) and Adapter B (5′-[…]-[…]-3′), 1 mM MgSO4, 3.75 units of Platinum Pfx polymerase, and water to 50 μl. […]

Substance	Effect on a-syn-CHMP2B interaction, PLA [1]	Reads 10M MG132 [2]	Reads 25M MG132 [2]	Reads 50M MG132 [2]	Slope Norm Reads [2]	Reads 0M MG132 ([2]; Illumina reads, average Phred >30)
DEEIERQLKALG [PDpep1.3]	reduction of the interaction between endogenous WT a-syn and CHMP2B	–	–	–	–	–
IPIQLKA [PDpep1, initial screen hit peptide IPIQLKA]	–	1	1629	3375	3.45	90
